Experimental data reported in patent publication US20230390315A1, “COMPOSITIONS AND METHODS FOR TREATING ISCHEMIC CONDITIONS” (The Regents of the University of California, priority 2020, published 2023).

Experiments:
[1] = test system: bovine choroidal microvascular endothelial cells (BCEC); assay: BCEC proliferation assay; assay type: cell-based
Procedure: Proliferation assays with BCECs and BRECs were performed. Log-phase growing BCECs or BRECs (passage <10) were trypsinized, re-suspended and seeded in 96-well plates (no coating) in low-glucose DMEM supplemented with 10% bovine calf serum, 2 mM glutamine, and antibiotics (growth medium), at a density of 1200-1500 cells per well in 200 μl volume. All reagents were added at the indicated final concentrations. […] Fluorescence was measured at 530 nm excitation wavelength and 590 nm emission wavelength. The experiments were repeated at least three times. […] On each 96-well plate, untreated and VEGF-treated (10/ng/ml) wells were included to monitor plate-to-plate variations. 20% methanol or 0.05% DMSO served as negative controls. 0.05% DMSO served as negative controls when Cas was tested in these cells. Human […] and human adult […] were split into Gelatin-coated 96 wells (2000 cells per well) in low glucose DMEM containing 10% FBS. 1200 cells/well was set up for proliferation assay in low glucose media containing FBS. […] HUVEC (p7-10) were grown on gelatin-coated plate until it reached 70-80% confluency. On the day of the assay, cells were dissociated with 0.05% trypsin, which was neutralized with 0.5% FBS-containing EBM. Cells were briefly spun and then re-suspended in 0.5% FBS-media. Cells were counted and plated in 96-well, 1000 cells/well. Triplicate wells were used for each treatment. Data were collected at day 3, and then cells were fixed in 4% paraformaldehyde for 15 min before adding crystal violet. Cell-covered areas were quantified after taking pictures by Image J software.

[2] = test system: BCEC confluent monolayers; assay: BCEC scratch assay; assay type: cell-based, bovine
Procedure: BCECs (passage 6-10) and HUVEC (passage 6-8) were used in this assay. Cells were grown until about 80% confluency in 6-well plates, washed twice with PBS and then starved in serum-free DMEM (low Glucose, Hyclone) for 5 hrs before making a “scratch” using 1 ml tip. Cell monolayers were briefly washed once with serum-free media, followed by various treatments in media containing 1% FBS. 48 hrs later, the assay was stopped by adding 2 ml 4% paraformaldehyde. 20 min later, fixed cells were stained with 1 ml Crystal Violet (Sigma). Plates were washed gently under the running tap water and air-dried before taking pictures. Images were acquired by ZEISS Discovery […] microscopy equipped with […] camera. Quantification of wound closure was done using AxioVision LE Rel.4.4 software. Six images were taken for each sample and six measurements (in pixel) were made on each image using AxioVision LE Rel.4.4 software.

JNK/c-Jun = assay: Western blot of JNK pathway activation in BCECs; assay type: cell-based, bovine; settings: media without growth factors
Procedure: (§1) Cells were allowed to reach 80% confluency in 12-well plates. […] At various time points, plates were taken out of the incubator and kept on ice. Cell monolayers were first washed once with ice-cold PBS before lysis with 250 μl of Pierce RIPA buffer (ThermoFisher Scientific, Rockford, IL) or use 50 mM Tris-HCl (pH 7.6), 150 mM NaCl, 10% Glycerol, 1% NP-40 containing protease/Phosphatase inhibitor cocktail (100×) (Cell signaling, #5872). Lysates were collected and mixed with 4×Bolt LDS Sample Buffer (Novex, Carlsbad, CA) in the presence of Halt protease inhibitors and phosphatase inhibitor cocktail (ThermoFisher scientific, #NP0007). The samples were subjected to SDS-PAGE (Bolt 4-12% Bis-Tris Plus, Invitrogen) using Bolt MES SDS running buffer or NuPAGE 3-8% Tris-Acetate gel using Tris-Acetate SDS running buffer (Novex). HUVECs (passage 6-8) were plated in EBM-2 basal medium (Lonza) with 0.2% FBS. […] Equal amounts of protein lysates were analyzed by SDS-PAGE and blotted with the indicated antibodies. Proteins were transferred using Tris-Glycine buffer with 20% Methanol (Proteonomics grade) (Apex BioResearch Products). Membranes were first incubated with 5% milk in TBST, pH 7.6 (TEKnova, Hollister, CA), followed by blotting with primary and secondary antibodies. ECL anti-rabbit IgG, horseradish peroxidase linked whole antibody from donkey or sheep anti-mouse were obtained from GE Healthcare (UK limited). SuperSignal West Dura Extended Duration substrate was from ThermoFisher Scientific. In some cases, the same PVDF membranes were stripped by 8-min incubation in the Restore Plus Western Blot Stripping Buffer (ThermoFisher Scientific) to show total specific protein expression, followed by second stripping for β-actin expression.

VEGFR2 = assay: Western blot of VEGFR2 molecular mass in BCECs and BRECs; assay type: cell-based, bovine
Procedure: Glycerol-free PNGase F was obtained from New England Biolabs (Ipswich, MA). Briefly, BCECs were lysed with NP-40 containing proteinase inhibitors (Thermo Scientific, Waltham, MA). Lysates were cleared at 4° C. at 5000 g for 25 mins. Total protein content was measured using Pierce BCA protein assay kit (ThermoScientific). […] of protein was mixed with 10× denaturing buffer and H2O to a total volume of […]. Glycoproteins were denatured at 100° C. for 10 mins, followed by adding Glycobuffer and PNGase F. The reaction was carried out at 37° C. for 2 hr.
as §1, with “˜80%” for “80%”

## O=C1N[C@@H]2[C@@H](O)[C@@H](O)[C@H](O)[C@@H](CO)N2C1=O [Kif, Kifunensine, reference compound]
[1]; absence or presence of 5 ng/ml VEGF
  BCEC proliferation with N-glycosylation inhibitors: stimulated in a dose-dependent fashion
[2]; over 48 hours relative to control
  activity of glycosylation inhibitors in BCEC scratch assay: significant activity
JNK/c-Jun
  activation of JNK pathway (JNK and downstream c-Jun): able to activate the JNK pathway
VEGFR2; 24 hours, SDS-PAGE
  VEGFR2 molecular mass after glycosylation inhibitor treatment: reduction in VEGFR2 molecular mass

## N[C@H](C=O)[C@@H](O)[C@H](O)[C@H](O)CO [ManN, 2-Amino-2-deoxy-D-mannose]
[1]
  dose range with significant stimulatory effects: 5 to 500 µM
[1]; 5 ng/ml VEGF
  additivity with VEGF in promoting BCEC proliferation: additive with VEGF
[1]; 20 ng/ml bFGF
  additivity with bFGF in promoting BCEC proliferation: Additive effects
[1]; 50 uM ManN and 5 ng/ml VEGF, compared to VEGF alone
  fold increase in fluorescence units upon AlamarBlue addition: 2.5-3 fold
[1]; ManN at 50 uM alone, crystal violet, FIG. 1A
  maximal fold increase in EC-covered surface: ~6.5 fold
[1]; experiments with VEGFR2 inhibitor axitinib
  dependence of VEGFR2 mass decrease and BCEC proliferation stimulation on VEGFR2 signaling: not dependent on VEGFR2 signaling
[1]; glucose-free media
  additivity between ManN and VEGF in glucose-free media: abolished
[1]; glucose-free media, even in the presence of VEGF
  concentration with significant cytotoxicity: 4 µM
[1]; with or without VEGF
  dose-response of effects on BCEC proliferation: bell-shaped dose-response curve, with inhibition at higher concentrations
[2]; 40 uM ManN or 50 ng/ml of VEGF, after 48 hours
  closure of the scratched area compared to control: significantly accelerated
[2]; both ManN and VEGF
  additivity of ManN and VEGF in scratch assay: additivity was observed
JNK/c-Jun
  activation of JNK pathway (JNK and downstream c-Jun): significantly activated
VEGFR2; BCECs
  duration of ManN effects on protein mass in the absence of exogenous ManN: at least 8 hours
VEGFR2; BCECs and BRECs
  concentration at which VEGFR2 molecular mass shift starts: 40 µM
  effect on apparent molecular mass of VEGFR2: shifted significantly
VEGFR2; BCECs, control major band ~230 KDa, minor ~210 KDa
  new lower molecular weight VEGFR2 bands: 170-200 KDa
VEGFR2; ManN at uM concentrations
  extent of loss of VEGFR2 glycosylation (PNGase F treatment): not all the glycosylation on VEGFR2 was abolished
VEGFR2; after 24 hours
  reversibility of effects on VEGFR2 molecular mass after ManN removal: completely reverse
